The subject of data set [1] is GSC-3. Nature of the data set: Inhibition of colony formation in human GSC-3 cells assessed as decrease in number of tumor spheres at 15 uM after 2 weeks by crystal violet staining based assay. The format is functional, cell-based.
Data set [2] relates to GSC-18. Put plainly: Inhibition of colony formation in human GSC-18 cells assessed as decrease in number of tumor spheres at 15 uM after 2 weeks by crystal violet staining based assay. In kind it is functional, cell-based.
The test system of data set [3] is GSC-3. Nature of the data set: Inhibition of colony formation in human GSC-3 cells assessed as tumor spheres damage at 15 uM after 2 weeks by crystal violet staining based assay. In kind it is functional, cell-based.
The test system of data set [4] is GSC-18. Put plainly: Inhibition of colony formation in human GSC-18 cells assessed as tumor spheres damage at 15 uM after 2 weeks by crystal violet staining based assay. The format is functional, cell-based.
Data set [5] has as its system HEK-293T. Nature of the data set: Cytotoxicity against human 293T cells assessed as reduction in cell viability after 72 hrs by MTS assay. The format is cell-based. Particulars: for IC50: Homo sapiens, HEK-293T. On the technique in general: Tetrazolium assays rely on reduction of a dye to a coloured formazan, in cell work by metabolically active cells.
Data set [6] concerns GSC-18. Nature of the data set: (§1) Cytotoxicity against human GSC18 cells assessed as reduction in cell viability after 72 hrs by MTS assay. In kind it is functional, cell-based.
The subject of data set [7] is GSC-3. Nature of the data set: (§2) Cytotoxicity against human GSC3 cells assessed as reduction in cell viability after 72 hrs by MTS assay. In kind it is functional, cell-based.
Data set [8] relates to HUVEC. Nature of the data set: Cytotoxicity against HUVEC assessed as reduction in cell viability after 72 hrs by MTS assay. In kind it is cell-based, Homo sapiens. Particulars: for IC50: Homo sapiens, HUVEC.
A short description of data set [9]: as §1. The format is functional, cell-based, GSC-18. Particulars: GSC18, 72 h.
Data set [10] can be described thus: as §2. In kind it is functional, cell-based. Particulars: GSC-3, 72 h.
Data set [11] deals with U-87 MG. Put plainly: Cytotoxicity against human U-87 MG cells assessed as reduction in cell viability after 72 hrs by MTS assay. The format is cell-based, U-87MG ATCC.
For data set [12], the system named is T98G. Put plainly: Cytotoxicity against human T98G assessed as reduction in cell viability after 72 hrs by MTS assay. The format is cell-based.
Data set [13] concerns GSC-3. Put plainly: Cytotoxicity against human GSC3 cells assessed as inhibition of cell growth at 20 uM after 5 days. As to conditions: time 5.0 day. In kind it is functional, cell-based.
Data set [14] deals with GSC-18. Nature of the data set: Cytotoxicity against human GSC18 cells assessed as inhibition of cell growth at 20 uM after 5 days. As to conditions: time 5.0 day. In kind it is functional, cell-based.
Data set [15] concerns T98G. Nature of the data set: Cytotoxicity against human T98G cells assessed as inhibition of cell growth at 20 uM after 5 days. The format is cell-based. Particulars: 120 h, time 5 day.
For data set [16], the system named is HEK-293T. Put plainly: Cytotoxicity against human 293T cells assessed as inhibition of cell growth at 20 uM after 5 days. In kind it is cell-based. Particulars: 120 h, time 5 day.
Data set [17] has as its system U-87 MG. Nature of the data set: Cytotoxicity against human U-87 MG cells assessed as inhibition of cell growth at 20 uM after 5 days. As to conditions: u-87mg atcc, 120 h, time 5 day. The format is cell-based.
The subject of data set [18] is HUVEC. Put plainly: Cytotoxicity against HUVEC assessed as inhibition of cell growth at 20 uM after 5 days. In kind it is cell-based. Particulars: human, 120 h, time 5 day.

The values below come from ChEMBL document CHEMBL4732125, “Structures/cytotoxicity/selectivity relationship of natural steroidal saponins against GSCs and primary mechanism of tribulosaponin A” (Eur J Med Chem, 2021).

SMILES strings stand for the structures. Calls of active or inactive are those of the source. The rule behind the calls is not given here.

For the molecule `Cn1nnc2c(C(N)=O)ncn2c1=O`, the inhibition entry in the data set on GSC-3 [1] and in the data set with GSC-18 [2] was “Active” throughout. Also, the result with GSC-3 [3] and in the data set with GSC-18 [4] was Active.

Consider `C[C@@H]1CC[C@@]2(OC1)O[C@H]1C[C@H]3[C@@H]4CC=C5C[C@@H](O[C@@H]6O[C@H](CO)[C@@H](O[C@@H]7O[C@@H](C)[C@H](O[C@@H]8O[C@@H](C)[C@H](O)[C@@H](O)[C@H]8O)[C@@H](O)[C@H]7O)[C@H](O)[C@H]6O[C@@H]6O[C@@H](C)[C@H](O)[C@@H](O)[C@H]6O)CC[C@]5(C)[C@H]4CC[C@]3(C)[C@H]1[C@@H]2C` [PENNOGENIN RAHAMNOSYL CHACOTRIOSIDE], for which the IC50 with HEK-293T [5] and in the data set on HUVEC [8] was 1830 nM throughout. For the same molecule, the outcome in the data set with GSC-18 [6] and with GSC-3 [7] was inactive.

Regarding `CO[C@]1(CC[C@@H](C)CO[C@@H]2O[C@H](CO)[C@@H](O)[C@H](O)[C@H]2O)O[C@H]2C[C@H]3[C@@H]4CC=C5C[C@@H](O[C@@H]6O[C@H](CO)[C@@H](O[C@@H]7O[C@@H](C)[C@H](O)[C@@H](O)[C@H]7O)[C@H](O)[C@H]6O[C@@H]6O[C@@H](C)[C@H](O)[C@@H](O)[C@H]6O)CC[C@]5(C)[C@H]4CC[C@]3(C)[C@H]2[C@@H]1C` [METHYLPROTODIOSCIN], the concentration for half-maximal inhibition (IC50) in data set [9] and in data set [10] was 1820 nM throughout.

For `C[C@@H]1O[C@@H](O[C@H]2[C@H](O[C@H]3CC[C@@]4(C)C(=CC[C@H]5[C@@H]6C[C@@H]7O[C@@]8(OC[C@H](CO)CC8O[C@H]8O[C@@H](CO)[C@H](O)[C@@H](O)[C@@H]8O)[C@@H](C)[C@@H]7[C@@]6(C)CC[C@@H]54)C3)O[C@H](CO)[C@@H](O[C@@H]3O[C@@H](C)[C@H](O)[C@@H](O)[C@H]3O)[C@@H]2O)[C@H](O)[C@H](O)[C@H]1O` (stereo partly specified), the outcome in the data set with GSC-18 [6] and with GSC-3 [7] was inactive.

For the molecule `C[C@@H]1CC[C@@]2(OC1)O[C@H]1C[C@H]3[C@@H]4CC=C5C[C@@H](O[C@@H]6O[C@H](CO)[C@@H](O)[C@H](O)[C@H]6O[C@@H]6O[C@@H](C)[C@H](O)[C@@H](O)[C@H]6O)CC[C@]5(C)[C@H]4CC[C@]3(C)[C@H]1[C@@H]2C` [OPHIOPOGONIN C], the Activity result in the data set with U-87 MG [11] (human, u-87mg atcc, time 72 hrs) is “Non-Toxic”; in the data set on HEK-293T [5] (human, hek-293t, time 72 hrs), “Non-Toxic”; with HUVEC [8] (human, huvec, time 72 hrs), “Non-Toxic”; in the data set on T98G [12] (human, t98g, time 72 hrs), “Non-Toxic”. In addition, the IC50 in data set [9] and in data set [10] was 780 nM throughout.

On to `C[C@@H]1CC[C@@]2(OC1)O[C@H]1C[C@H]3[C@@H]4CC=C5C[C@@H](O[C@@H]6O[C@H](CO)[C@@H](O[C@@H]7O[C@@H](C)[C@H](O)[C@@H](O)[C@H]7O)[C@H](O)[C@H]6O[C@@H]6O[C@@H](C)[C@H](O)[C@@H](O)[C@H]6O)CC[C@]5(C)[C@H]4CC[C@]3(C)[C@H]1[C@@H]2C`, for which the result in the data set with GSC-18 [6] and with GSC-3 [7] was Active.

Consider `C[C@H](CC[C@@]1(O)O[C@H]2C[C@H]3[C@@H]4CC=C5C[C@@H](O[C@@H]6O[C@H](CO)[C@@H](O[C@@H]7O[C@@H](C)[C@H](O)[C@@H](O)[C@H]7O)[C@H](O)[C@H]6O[C@@H]6O[C@@H](C)[C@H](O)[C@@H](O)[C@H]6O)CC[C@]5(C)[C@H]4CC[C@]3(C)[C@H]2[C@@H]1C)CO[C@@H]1O[C@H](CO)[C@@H](O)[C@H](O)[C@H]1O`, for which the half-maximal inhibitory concentration (IC50) (in general, the concentration that inhibits the measured activity by half) in the data set with HEK-293T [5] amounted to 3220 nM; in data set [9], 1090 nM; in data set [10], 1030 nM; with HUVEC [8] it was 3220 nM.

`CC(=O)O[C@H]1C(=O)[C@@]2(C)[C@H]([C@H](OC(=O)c3ccccc3)[C@]3(O)C[C@H](OC(=O)[C@H](O)[C@@H](NC(=O)c4ccccc4)c4ccccc4)C(C)=C1C3(C)C)[C@]1(OC(C)=O)CO[C@@H]1C[C@@H]2O` [PACLITAXEL]: the outcome with GSC-3 [13] and in the data set with GSC-18 [14] was Active. The Activity result in the data set on T98G [15], with HEK-293T [16], in the data set with U-87 MG [17] and in the data set with HUVEC [18] was “Toxic” each time. Further, the IC50 in the data set on U-87 MG [11] (Homo sapiens, U-87 MG) worked out at 8 nM; with HEK-293T [5], 10 nM; in [9], 9600 nM; in data set [10], 11300 nM; with HUVEC [8], 5 nM; with T98G [12] (Homo sapiens, T98G), 12 nM.
